The values below come from ChEMBL document CHEMBL3639359, “Compounds as cannabinoid receptor ligands” (2014).

The target in experiment [1] is T1, Cannabinoid receptor 2 (Rattus norvegicus, UniProt Q9QZN9).
T1 sequence (Q9QZN9 whole entry): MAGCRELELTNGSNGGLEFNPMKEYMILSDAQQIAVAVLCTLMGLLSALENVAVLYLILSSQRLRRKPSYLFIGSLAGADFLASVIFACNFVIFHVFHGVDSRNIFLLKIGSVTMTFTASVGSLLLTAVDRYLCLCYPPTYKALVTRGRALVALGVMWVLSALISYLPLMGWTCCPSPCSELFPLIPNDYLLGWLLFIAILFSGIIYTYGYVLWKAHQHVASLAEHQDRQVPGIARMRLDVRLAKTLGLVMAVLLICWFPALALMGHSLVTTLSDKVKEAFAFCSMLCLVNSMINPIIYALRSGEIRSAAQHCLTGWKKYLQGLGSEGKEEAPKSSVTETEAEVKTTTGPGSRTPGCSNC
Kind of experiment: Radioligand Binding Assay: HEK293 cells stably expressing rat CB2 receptors were grown until a confluent monolayer was formed. Briefly, the cells were harvested and homogenized in TE buffer (50 mM Tris-HCl, 1 mM MgCl2, and 1 mM EDTA) using a polytron for 2x 10 second bursts in the presence of protease inhibitors, followed by centrifugation at 45,000x g for 20 minutes. The final membrane pellet was re-homogenized in storage buffer (50 mM Tris-HCl, 1 mM MgCl2, and 1 mM EDTA and 10% sucrose) and frozen at -78 C. until used. Saturation binding reactions were initiated by the addition of membrane preparation (protein concentration of 20 ug/well for rat CB2) into wells of a deep well plate containing [3H]CP 55,940 (120 Ci/mmol, a nonselective CB agonist commercially available from Tocris) in assay buffer (50 mM Tris, 2.5 mM EDTA, 5 mM MgCl2, and 0.5 mg/mL fatty acid free BSA, pH 7.4). After 45 min incubation at 30u C., binding reaction was terminated by the addition of 300 ul/well of cold assay buffer. It is filed as cell membranes.

The target in experiment [2] is Cannabinoid receptor 2 (Homo sapiens, UniProt P34972). As to the kind of experiment: Radioligand Binding Assay: HEK293 cells stably expressing human CB2 receptors were grown until a confluent monolayer was formed. Briefly, the cells were harvested and homogenized in TE buffer (50 mM Tris-HCl, 1 mM MgCl2, and 1 mM EDTA) using a polytron for 2x 10 second bursts in the presence of protease inhibitors, followed by centrifugation at 45,000xg for 20 minutes. The final membrane pellet was re-homogenized in storage buffer (50 mM Tris-HCl, 1 mM MgCl2, and 1 mM EDTA and 10% sucrose) and frozen at -78 C. until used. Saturation binding reactions were initiated by the addition of membrane preparation (protein concentration of 5 ug/well for human CB2) into wells of a deep well plate containing [3H]CP 55,940 (120 Ci/mmol, a nonselective CB agonist commercially available from Tocris) in assay buffer (50 mM Tris, 2.5 mM EDTA, 5 mM MgCl2, and 0.5 mg/mL fatty acid free BSA, pH 7.4). After 90 min incubation at 30 C., binding reaction was terminated by the addition of 300 uL/well of cold assay buffer. It is filed as cell membranes.
Cannabinoid receptor 2 (Homo sapiens, UniProt P34972), sequence (P34972 whole entry): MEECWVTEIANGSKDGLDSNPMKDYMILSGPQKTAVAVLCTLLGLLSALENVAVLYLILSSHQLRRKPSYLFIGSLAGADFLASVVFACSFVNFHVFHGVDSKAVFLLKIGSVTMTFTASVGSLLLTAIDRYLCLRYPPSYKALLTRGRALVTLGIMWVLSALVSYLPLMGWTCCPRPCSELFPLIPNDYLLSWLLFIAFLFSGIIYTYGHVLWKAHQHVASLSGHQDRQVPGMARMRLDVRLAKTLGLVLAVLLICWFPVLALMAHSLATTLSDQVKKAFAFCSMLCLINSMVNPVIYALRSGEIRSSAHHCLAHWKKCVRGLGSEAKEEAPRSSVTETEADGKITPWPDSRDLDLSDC

As for `CCCCn1nc(C(C)(C)C)s/c1=N\C(=O)c1cc(C(F)(F)F)ccc1ON=C(C)C`, the Ki turned out to be 5.2 nM at Cannabinoid receptor 2 [1] and 12 nM at Cannabinoid receptor 2 [2].
